Earlier results as cited in patent US20170304500A1, “MICROFABRICATED TISSUE SCAFFOLDS AND METHODS OF MAKING AND USING THE SAME” (TARA BIOSYSTEMS INC., priority 2014, published 2017).

Tested on: artery and vein
Conditions: released from hydrogel; reported in PNAS; cited from earlier work

thymosin Beta-4: peptide controllably released from a hydrogel (SDKPDMAEIEKFDKSKLKKTETQEKNPLPSKETIEQEKQAGES; Thymosin beta-4 released from hydrogel; UniProt P62328 2-44, looked up)
angiogenesis: stimulated angiogenesis
